Experimental data taken from ChEMBL document CHEMBL4507268 (2021).

Assays:
Conditions in all cases: Compound concentration 1.0 uM
[1] = molecular target: Calcium/calmodulin-dependent protein kinase type II subunit alpha (Homo sapiens) (UniProt Q9UQM7)
[2] = molecular target: Protein kinase C delta type (Homo sapiens) (UniProt Q05655)
[3] = molecular target: T1, Calcium/calmodulin-dependent protein kinase type IV (Homo sapiens) (UniProt Q16566)
T1 sequence (whole entry): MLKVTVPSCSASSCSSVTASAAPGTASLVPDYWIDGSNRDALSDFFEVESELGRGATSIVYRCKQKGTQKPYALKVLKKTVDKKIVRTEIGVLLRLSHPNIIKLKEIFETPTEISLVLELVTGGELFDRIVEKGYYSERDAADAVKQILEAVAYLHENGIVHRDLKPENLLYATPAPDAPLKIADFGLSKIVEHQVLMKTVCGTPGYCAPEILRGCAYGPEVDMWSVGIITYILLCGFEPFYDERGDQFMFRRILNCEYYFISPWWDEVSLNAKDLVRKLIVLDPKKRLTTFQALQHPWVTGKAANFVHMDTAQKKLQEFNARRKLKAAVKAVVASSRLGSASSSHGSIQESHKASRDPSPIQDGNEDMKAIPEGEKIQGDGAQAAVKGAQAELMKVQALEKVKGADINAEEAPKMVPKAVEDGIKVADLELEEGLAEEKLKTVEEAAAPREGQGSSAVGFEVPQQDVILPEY

[4] = molecular target: Interferon-induced, double-stranded RNA-activated protein kinase (Homo sapiens) (UniProt P19525)
[5] = molecular target: Dual specificity tyrosine-phosphorylation-regulated kinase 3 (Homo sapiens) (UniProt O43781)
[6] = molecular target: Transient receptor potential cation channel subfamily M member 7 (Homo sapiens) (UniProt Q96QT4)
[7] = molecular target: Testis-specific serine/threonine-protein kinase 4 (Homo sapiens) (UniProt Q6SA08)
[8] = molecular target: Calcium/calmodulin-dependent protein kinase type II subunit gamma (Homo sapiens) (UniProt Q13555)
[9] = molecular target: Mitogen-activated protein kinase 1 (Homo sapiens) (UniProt P28482)
[10] = molecular target: Protein-tyrosine kinase 2-beta (Homo sapiens) (UniProt Q14289)
[11] = molecular target: Tyrosine-protein kinase ABL1 (Homo sapiens) (UniProt P00519)
[12] = molecular target: Dual specificity protein kinase CLK3 (Homo sapiens) (UniProt P49761)
[13] = molecular target: T2, Ephrin type-A receptor 8 (Homo sapiens) (UniProt P29322)
T2 sequence (whole entry): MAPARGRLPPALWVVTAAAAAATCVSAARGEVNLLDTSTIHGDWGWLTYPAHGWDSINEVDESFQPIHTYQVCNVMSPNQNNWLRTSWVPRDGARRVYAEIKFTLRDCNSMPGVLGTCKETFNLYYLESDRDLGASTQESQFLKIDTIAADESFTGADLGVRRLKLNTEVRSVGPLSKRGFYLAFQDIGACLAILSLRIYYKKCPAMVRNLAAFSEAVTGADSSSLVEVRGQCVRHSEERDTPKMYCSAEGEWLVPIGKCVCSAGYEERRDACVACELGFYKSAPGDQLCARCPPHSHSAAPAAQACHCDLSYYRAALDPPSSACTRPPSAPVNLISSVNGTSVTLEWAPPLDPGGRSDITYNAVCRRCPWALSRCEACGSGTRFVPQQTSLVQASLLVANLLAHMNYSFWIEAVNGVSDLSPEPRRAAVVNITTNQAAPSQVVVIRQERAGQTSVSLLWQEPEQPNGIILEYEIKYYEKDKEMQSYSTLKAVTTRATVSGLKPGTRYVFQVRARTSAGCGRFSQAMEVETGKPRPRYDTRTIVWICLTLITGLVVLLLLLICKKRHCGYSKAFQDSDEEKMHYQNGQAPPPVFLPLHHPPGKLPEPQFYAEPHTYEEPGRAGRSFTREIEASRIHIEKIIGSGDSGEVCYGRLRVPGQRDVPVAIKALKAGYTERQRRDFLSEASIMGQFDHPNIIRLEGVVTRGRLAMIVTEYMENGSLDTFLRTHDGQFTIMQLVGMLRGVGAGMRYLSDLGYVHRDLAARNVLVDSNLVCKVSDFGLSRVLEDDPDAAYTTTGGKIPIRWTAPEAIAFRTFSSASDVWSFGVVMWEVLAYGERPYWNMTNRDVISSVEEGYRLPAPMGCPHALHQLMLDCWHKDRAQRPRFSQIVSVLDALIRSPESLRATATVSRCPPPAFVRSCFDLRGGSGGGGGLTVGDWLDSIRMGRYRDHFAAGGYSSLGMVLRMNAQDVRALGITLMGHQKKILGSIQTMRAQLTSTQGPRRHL

[14] = molecular target: T3, Inhibitor of nuclear factor kappa-B kinase subunit alpha (Homo sapiens) (UniProt O15111)
T3 sequence (whole entry): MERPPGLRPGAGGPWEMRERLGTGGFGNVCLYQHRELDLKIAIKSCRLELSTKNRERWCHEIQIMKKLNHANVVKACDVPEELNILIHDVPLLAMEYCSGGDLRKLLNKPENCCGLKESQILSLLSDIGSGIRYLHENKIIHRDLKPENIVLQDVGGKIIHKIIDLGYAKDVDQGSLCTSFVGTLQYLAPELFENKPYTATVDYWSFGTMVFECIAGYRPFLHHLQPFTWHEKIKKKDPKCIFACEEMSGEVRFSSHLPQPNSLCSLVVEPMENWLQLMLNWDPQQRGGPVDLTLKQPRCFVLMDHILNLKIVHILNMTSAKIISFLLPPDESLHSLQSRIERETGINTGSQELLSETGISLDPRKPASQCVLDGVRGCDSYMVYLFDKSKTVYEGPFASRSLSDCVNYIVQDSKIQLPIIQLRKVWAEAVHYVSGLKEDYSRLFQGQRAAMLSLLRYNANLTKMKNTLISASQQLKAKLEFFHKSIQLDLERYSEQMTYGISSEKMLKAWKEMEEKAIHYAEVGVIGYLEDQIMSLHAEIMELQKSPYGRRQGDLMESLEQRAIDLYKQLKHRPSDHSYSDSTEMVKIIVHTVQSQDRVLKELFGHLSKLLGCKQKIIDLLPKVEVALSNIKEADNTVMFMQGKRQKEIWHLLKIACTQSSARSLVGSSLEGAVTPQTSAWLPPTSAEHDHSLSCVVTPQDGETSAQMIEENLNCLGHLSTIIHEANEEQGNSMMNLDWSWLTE

[15] = molecular target: Leukocyte tyrosine kinase receptor (Homo sapiens) (UniProt P29376)

Measured: % residual kinase activity

Chain of Dual specificity tyrosine-phosphorylation-regulated kinase 3 (Homo sapiens) (O43781 whole entry): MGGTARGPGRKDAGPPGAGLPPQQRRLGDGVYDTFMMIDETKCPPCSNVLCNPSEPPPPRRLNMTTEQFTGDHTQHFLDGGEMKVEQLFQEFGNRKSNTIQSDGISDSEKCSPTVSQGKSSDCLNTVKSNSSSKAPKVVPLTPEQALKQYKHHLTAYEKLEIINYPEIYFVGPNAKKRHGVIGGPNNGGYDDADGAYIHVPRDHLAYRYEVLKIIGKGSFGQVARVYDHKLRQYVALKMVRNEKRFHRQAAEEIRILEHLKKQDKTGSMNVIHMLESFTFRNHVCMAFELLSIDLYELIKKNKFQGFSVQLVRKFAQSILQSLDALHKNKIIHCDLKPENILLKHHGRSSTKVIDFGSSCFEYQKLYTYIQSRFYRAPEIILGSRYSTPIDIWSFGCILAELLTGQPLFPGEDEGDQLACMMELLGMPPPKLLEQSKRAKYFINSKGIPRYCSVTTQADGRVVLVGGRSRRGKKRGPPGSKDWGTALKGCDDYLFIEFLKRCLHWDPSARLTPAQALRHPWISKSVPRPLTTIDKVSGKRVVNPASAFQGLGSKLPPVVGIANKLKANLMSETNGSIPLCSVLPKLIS
Chain of Protein kinase C delta type (Homo sapiens) (Q05655 whole entry, looked up): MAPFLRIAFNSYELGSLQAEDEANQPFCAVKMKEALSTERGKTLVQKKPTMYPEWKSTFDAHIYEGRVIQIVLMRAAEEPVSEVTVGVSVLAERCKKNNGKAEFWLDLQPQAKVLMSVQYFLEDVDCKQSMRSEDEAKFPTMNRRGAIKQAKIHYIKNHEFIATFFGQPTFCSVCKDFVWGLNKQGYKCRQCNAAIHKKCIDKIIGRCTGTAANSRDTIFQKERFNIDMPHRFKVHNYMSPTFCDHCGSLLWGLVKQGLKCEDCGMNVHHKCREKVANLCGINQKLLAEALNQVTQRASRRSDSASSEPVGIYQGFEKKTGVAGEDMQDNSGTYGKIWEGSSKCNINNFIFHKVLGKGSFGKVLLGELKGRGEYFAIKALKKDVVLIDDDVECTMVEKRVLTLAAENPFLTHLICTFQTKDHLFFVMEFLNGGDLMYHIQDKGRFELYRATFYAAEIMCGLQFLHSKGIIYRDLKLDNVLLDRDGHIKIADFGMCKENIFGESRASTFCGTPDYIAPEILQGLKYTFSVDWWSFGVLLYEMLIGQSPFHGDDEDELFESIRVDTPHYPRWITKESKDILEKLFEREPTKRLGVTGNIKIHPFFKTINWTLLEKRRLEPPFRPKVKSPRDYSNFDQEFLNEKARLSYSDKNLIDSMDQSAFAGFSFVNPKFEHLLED
Chain of Tyrosine-protein kinase ABL1 (Homo sapiens) (P00519 whole entry): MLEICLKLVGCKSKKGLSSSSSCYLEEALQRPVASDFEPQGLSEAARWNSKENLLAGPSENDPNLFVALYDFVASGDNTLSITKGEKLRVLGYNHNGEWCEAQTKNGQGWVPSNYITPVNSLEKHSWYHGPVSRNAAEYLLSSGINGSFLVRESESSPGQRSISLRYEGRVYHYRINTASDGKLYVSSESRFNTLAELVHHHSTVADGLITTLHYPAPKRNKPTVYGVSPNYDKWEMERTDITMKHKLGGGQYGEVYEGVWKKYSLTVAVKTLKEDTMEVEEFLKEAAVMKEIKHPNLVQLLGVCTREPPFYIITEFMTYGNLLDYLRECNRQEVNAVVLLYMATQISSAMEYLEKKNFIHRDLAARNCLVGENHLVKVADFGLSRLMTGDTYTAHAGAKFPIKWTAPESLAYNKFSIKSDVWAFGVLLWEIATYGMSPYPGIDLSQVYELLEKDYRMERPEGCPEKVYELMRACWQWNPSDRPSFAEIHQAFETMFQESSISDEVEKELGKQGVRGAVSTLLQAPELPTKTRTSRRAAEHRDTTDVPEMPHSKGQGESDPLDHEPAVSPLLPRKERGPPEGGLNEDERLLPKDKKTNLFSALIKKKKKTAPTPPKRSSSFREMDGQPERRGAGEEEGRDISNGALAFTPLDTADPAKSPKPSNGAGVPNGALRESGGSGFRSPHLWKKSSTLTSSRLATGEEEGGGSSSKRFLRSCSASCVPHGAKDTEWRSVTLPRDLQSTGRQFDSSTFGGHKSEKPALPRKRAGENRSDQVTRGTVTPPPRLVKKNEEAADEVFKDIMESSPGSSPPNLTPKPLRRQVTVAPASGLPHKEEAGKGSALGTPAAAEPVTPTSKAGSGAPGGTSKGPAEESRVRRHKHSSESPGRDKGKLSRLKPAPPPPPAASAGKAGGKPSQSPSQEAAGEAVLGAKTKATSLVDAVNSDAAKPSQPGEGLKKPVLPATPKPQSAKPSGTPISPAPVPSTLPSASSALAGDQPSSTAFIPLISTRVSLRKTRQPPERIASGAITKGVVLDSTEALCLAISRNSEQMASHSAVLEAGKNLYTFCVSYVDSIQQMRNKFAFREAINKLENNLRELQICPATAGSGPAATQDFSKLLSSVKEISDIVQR
Chain of Interferon-induced, double-stranded RNA-activated protein kinase (Homo sapiens) (P19525 whole entry): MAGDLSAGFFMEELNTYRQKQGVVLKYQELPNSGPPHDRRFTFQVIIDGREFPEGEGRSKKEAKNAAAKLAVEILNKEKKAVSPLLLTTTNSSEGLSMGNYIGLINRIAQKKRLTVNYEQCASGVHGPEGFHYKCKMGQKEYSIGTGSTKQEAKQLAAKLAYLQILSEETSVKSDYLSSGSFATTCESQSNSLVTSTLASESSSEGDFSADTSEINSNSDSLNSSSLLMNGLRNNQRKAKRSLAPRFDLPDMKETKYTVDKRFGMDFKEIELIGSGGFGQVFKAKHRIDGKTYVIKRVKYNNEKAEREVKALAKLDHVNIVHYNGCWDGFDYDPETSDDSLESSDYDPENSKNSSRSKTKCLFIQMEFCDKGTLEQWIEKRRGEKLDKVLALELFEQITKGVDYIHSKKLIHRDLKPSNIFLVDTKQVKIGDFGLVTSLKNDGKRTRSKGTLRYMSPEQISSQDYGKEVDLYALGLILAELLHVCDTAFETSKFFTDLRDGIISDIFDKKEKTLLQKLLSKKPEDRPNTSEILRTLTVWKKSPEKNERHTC
Chain of Mitogen-activated protein kinase 1 (Homo sapiens) (P28482 whole entry): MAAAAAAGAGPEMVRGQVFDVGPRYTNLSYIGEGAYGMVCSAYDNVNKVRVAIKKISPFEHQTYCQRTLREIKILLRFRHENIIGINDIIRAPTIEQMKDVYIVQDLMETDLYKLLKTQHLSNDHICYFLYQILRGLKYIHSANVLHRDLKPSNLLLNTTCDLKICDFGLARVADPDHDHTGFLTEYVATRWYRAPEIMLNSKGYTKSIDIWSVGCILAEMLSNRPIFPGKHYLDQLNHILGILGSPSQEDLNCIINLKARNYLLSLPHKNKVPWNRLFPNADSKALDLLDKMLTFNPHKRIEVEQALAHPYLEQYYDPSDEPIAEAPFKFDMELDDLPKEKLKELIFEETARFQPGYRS
Chain of Calcium/calmodulin-dependent protein kinase type II subunit gamma (Homo sapiens) (Q13555 whole entry): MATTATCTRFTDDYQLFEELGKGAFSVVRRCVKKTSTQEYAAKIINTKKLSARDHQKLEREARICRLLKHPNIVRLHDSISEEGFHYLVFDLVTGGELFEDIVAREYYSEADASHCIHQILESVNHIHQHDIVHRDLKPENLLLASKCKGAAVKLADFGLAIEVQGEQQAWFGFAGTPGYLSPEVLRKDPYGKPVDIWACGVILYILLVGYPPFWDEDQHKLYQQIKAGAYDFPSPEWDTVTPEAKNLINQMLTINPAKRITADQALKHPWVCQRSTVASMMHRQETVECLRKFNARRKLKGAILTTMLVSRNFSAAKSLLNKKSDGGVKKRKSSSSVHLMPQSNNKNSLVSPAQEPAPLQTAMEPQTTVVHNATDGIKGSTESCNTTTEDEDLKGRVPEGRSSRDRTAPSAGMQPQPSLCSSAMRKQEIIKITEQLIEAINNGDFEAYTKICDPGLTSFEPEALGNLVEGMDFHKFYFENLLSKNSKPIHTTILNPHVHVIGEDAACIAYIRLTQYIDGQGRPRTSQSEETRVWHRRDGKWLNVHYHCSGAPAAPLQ
Chain of Leukocyte tyrosine kinase receptor (Homo sapiens) (P29376 whole entry): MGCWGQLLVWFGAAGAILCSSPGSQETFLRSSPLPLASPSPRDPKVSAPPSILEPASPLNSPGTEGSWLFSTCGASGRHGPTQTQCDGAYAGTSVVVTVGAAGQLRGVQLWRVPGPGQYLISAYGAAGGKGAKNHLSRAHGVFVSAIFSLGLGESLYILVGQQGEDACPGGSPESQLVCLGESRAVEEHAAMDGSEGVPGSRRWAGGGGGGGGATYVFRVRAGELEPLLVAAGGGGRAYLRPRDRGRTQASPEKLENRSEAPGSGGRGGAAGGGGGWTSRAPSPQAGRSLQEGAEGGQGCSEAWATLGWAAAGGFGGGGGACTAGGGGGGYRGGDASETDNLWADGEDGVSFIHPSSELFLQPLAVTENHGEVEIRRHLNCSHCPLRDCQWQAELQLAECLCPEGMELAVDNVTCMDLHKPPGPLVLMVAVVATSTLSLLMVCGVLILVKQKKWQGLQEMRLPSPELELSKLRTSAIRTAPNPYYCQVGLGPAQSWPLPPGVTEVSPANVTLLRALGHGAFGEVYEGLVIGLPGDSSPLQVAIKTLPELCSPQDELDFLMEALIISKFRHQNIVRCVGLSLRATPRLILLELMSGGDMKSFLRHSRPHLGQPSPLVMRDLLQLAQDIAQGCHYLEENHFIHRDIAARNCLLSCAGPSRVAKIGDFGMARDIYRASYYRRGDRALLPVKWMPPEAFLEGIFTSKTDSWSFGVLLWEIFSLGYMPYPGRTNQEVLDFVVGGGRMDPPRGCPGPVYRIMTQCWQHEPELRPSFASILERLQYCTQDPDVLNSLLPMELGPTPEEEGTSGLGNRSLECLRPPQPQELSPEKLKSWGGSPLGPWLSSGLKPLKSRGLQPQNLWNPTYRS

CN1CCN(c2cnc3c(C4CCN(C(=O)c5ccc(OC(F)(F)F)cc5N)CC4)ncnc3c2)CC1 [BAY-885]
inactive: [1] 108% | [2] 115% | [3] 96% | [4] 115% | [5] 103% | [6] 122% | [7] 115% | [8] 93% | [9] 107% | [10] 103% | [11] 100% | [12] 111% | [13] 104% | [14] 99% | [15] 103%
